Source: PubChem BioAssay AID1259407 (Chemical Carcinogenesis Research Information System (CCRIS), 2018)
Active and inactive are the calls of the source. No rule for the calls is given here.

Tested on: CCRIS mutagenicity, Ames/micronucleus/aberration tests
Experiment: CCRIS mutagenicity studies
[1] = Test System: AMES SALMONELLA TYPHIMURIUM, Strain/Indicator: TA98, Metabolic Activation: HAMSTER, LIVER, S-9, AROCLOR 1254 (10%), Method: PREINCUBATION
[2] = Test System: AMES SALMONELLA TYPHIMURIUM, Strain/Indicator: TA98, Metabolic Activation: NONE, Method: PREINCUBATION
[3] = Test System: AMES SALMONELLA TYPHIMURIUM, Strain/Indicator: TA98, Metabolic Activation: NONE, Method: STANDARD PLATE
[4] = Test System: AMES SALMONELLA TYPHIMURIUM, Strain/Indicator: TA98, Metabolic Activation: RAT, LIVER, S-9, AROCLOR 1254 (10%), Method: PREINCUBATION
[5] = Test System: AMES SALMONELLA TYPHIMURIUM, Strain/Indicator: TA100, Metabolic Activation: HAMSTER, LIVER, S-9, AROCLOR 1254 (10%), Method: PREINCUBATION
[6] = Test System: AMES SALMONELLA TYPHIMURIUM, Strain/Indicator: TA100, Metabolic Activation: NONE, Method: PREINCUBATION
[7] = Test System: AMES SALMONELLA TYPHIMURIUM, Strain/Indicator: TA100, Metabolic Activation: NONE, Method: STANDARD PLATE
[8] = Test System: AMES SALMONELLA TYPHIMURIUM, Strain/Indicator: TA100, Metabolic Activation: RAT, LIVER, S-9, AROCLOR 1254 (10%), Method: PREINCUBATION
[9] = Test System: AMES SALMONELLA TYPHIMURIUM, Strain/Indicator: TA1535, Metabolic Activation: HAMSTER, LIVER, S-9, AROCLOR 1254 (10%), Method: PREINCUBATION
[10] = Test System: AMES SALMONELLA TYPHIMURIUM, Strain/Indicator: TA1535, Metabolic Activation: NONE, Method: PREINCUBATION
[11] = Test System: AMES SALMONELLA TYPHIMURIUM, Strain/Indicator: TA1535, Metabolic Activation: NONE, Method: STANDARD PLATE
[12] = Test System: AMES SALMONELLA TYPHIMURIUM, Strain/Indicator: TA1535, Metabolic Activation: RAT, LIVER, S-9, AROCLOR 1254 (10%), Method: PREINCUBATION
[13] = Test System: AMES SALMONELLA TYPHIMURIUM, Strain/Indicator: TA1537, Metabolic Activation: NONE, Method: STANDARD PLATE

Compound | mutagenic call [1] | mutagenic call [2] | mutagenic call [3] | mutagenic call [4] | mutagenic call [5] | mutagenic call [6] | mutagenic call [7] | mutagenic call [8] | mutagenic call [9] | mutagenic call [10] | mutagenic call [11] | mutagenic call [12] | mutagenic call [13] | other results
CCN(CC)CCCC(C)Nc1c2ccc(Cl)cc2nc2ccc(OC)cc12 (configuration not stated) | active; positive | active; positive | inactive; negative | active; positive | inactive; negative | inactive; negative | inactive; negative | inactive; negative | inactive; negative | inactive; negative | inactive; negative | inactive; negative | active; positive | mutagenic call (Test System: AMES SALMONELLA TYPHIMURIUM, Strain/Indicator: TA97, Metabolic Activation: HAMSTER, LIVER, S-9, AROCLOR 1254 (10%), Method: PREINCUBATION): active; positive; mutagenic call (Test System: AMES SALMONELLA TYPHIMURIUM, Strain/Indicator: TA97, Metabolic Activation: NONE, Method: PREINCUBATION): active; positive; mutagenic call (Test System: AMES SALMONELLA TYPHIMURIUM, Strain/Indicator: TA97, Metabolic Activation: RAT, LIVER, S-9, AROCLOR 1254 (10%), Method: PREINCUBATION): active; positive; mutagenic call (Test System: AMES SALMONELLA TYPHIMURIUM, Strain/Indicator: TA98, Metabolic Activation: RAT LIVER S-9, AROCLOR 1254 (10%), Method: STANDARD PLATE): active; positive; mutagenic call (Test System: AMES SALMONELLA TYPHIMURIUM, Strain/Indicator: TA98, Metabolic Activation: RAT LIVER S-9, Method: STANDARD PLATE): active; positive; mutagenic call (Test System: AMES SALMONELLA TYPHIMURIUM, Strain/Indicator: TA100, Metabolic Activation: RAT LIVER S-9, AROCLOR 1254 (10%), Method: STANDARD PLATE): inactive; negative; mutagenic call (Test System: AMES SALMONELLA TYPHIMURIUM, Strain/Indicator: TA100, Metabolic Activation: RAT LIVER S-9, Method: STANDARD PLATE): inactive; negative; mutagenic call (Test System: AMES SALMONELLA TYPHIMURIUM, Strain/Indicator: TA1535, Metabolic Activation: RAT LIVER S-9, AROCLOR 1254 (10%), Method: STANDARD PLATE): inactive; negative; mutagenic call (Test System: AMES SALMONELLA TYPHIMURIUM, Strain/Indicator: TA1537, Metabolic Activation: RAT LIVER S-9, AROCLOR 1254 (10%), Method: STANDARD PLATE): active; positive; mutagenic call (Test System: E. COLI, Strain/Indicator: WP2 UVRA, Metabolic Activation: NONE, Method: STANDARD PLATE): active; positive; mutagenic call (Test System: E. COLI, Strain/Indicator: WP2 UVRA, Metabolic Activation: RAT LIVER S-9, AROCLOR 1254 (10%), Method: STANDARD PLATE): inactive; negative; mutagenic call (Test System: MOUSE LYMPHOMA, Strain/Indicator: L5178Y(TK+/TK-), Metabolic Activation: NONE, Method: SUSPENSION/PLATE): active; positive; mutagenic call (Test System: MOUSE LYMPHOMA, Strain/Indicator: L5178Y(TK+/TK-), Metabolic Activation: RAT LIVER S-9, AROCLOR 1254 (25%), Method: SUSPENSION/PLATE): inactive; negative
C/C=C1\CC2C=CC1C2 (configuration not stated) | inactive; negative | inactive; negative | inactive; negative | inactive; negative | inactive; negative | inactive; negative | inactive; negative | inactive; negative | inactive; negative | inactive; negative | inactive; negative | inactive; negative | inactive; negative | mutagenic call (Test System: AMES SALMONELLA TYPHIMURIUM, Strain/Indicator: TA98, Metabolic Activation: RAT LIVER S-9, AROCLOR 1254, Method: STANDARD PLATE): inactive; negative; mutagenic call (Test System: AMES SALMONELLA TYPHIMURIUM, Strain/Indicator: TA100, Metabolic Activation: RAT LIVER S-9, AROCLOR 1254, Method: STANDARD PLATE): inactive; negative; mutagenic call (Test System: AMES SALMONELLA TYPHIMURIUM, Strain/Indicator: TA1535, Metabolic Activation: RAT LIVER S-9, AROCLOR 1254, Method: STANDARD PLATE): inactive; negative; mutagenic call (Test System: AMES SALMONELLA TYPHIMURIUM, Strain/Indicator: TA1537, Metabolic Activation: HAMSTER, LIVER, S-9, AROCLOR 1254 (10%), Method: PREINCUBATION): inactive; negative; mutagenic call (Test System: AMES SALMONELLA TYPHIMURIUM, Strain/Indicator: TA1537, Metabolic Activation: NONE, Method: PREINCUBATION): inactive; negative; mutagenic call (Test System: AMES SALMONELLA TYPHIMURIUM, Strain/Indicator: TA1537, Metabolic Activation: RAT LIVER S-9, AROCLOR 1254, Method: STANDARD PLATE): inactive; negative; mutagenic call (Test System: AMES SALMONELLA TYPHIMURIUM, Strain/Indicator: TA1537, Metabolic Activation: RAT, LIVER, S-9, AROCLOR 1254 (10%), Method: PREINCUBATION): inactive; negative; mutagenic call (Test System: AMES SALMONELLA TYPHIMURIUM, Strain/Indicator: TA1538, Metabolic Activation: NONE, Method: STANDARD PLATE): inactive; negative; mutagenic call (Test System: AMES SALMONELLA TYPHIMURIUM, Strain/Indicator: TA1538, Metabolic Activation: RAT LIVER S-9, AROCLOR 1254, Method: STANDARD PLATE): inactive; negative; mutagenic call (Test System: CHINESE HAMSTER OVARY, Strain/Indicator: CHO-K1-BH4 (HGPRT)/6-THIOGUANINE, Metabolic Activation: NONE): inactive; negative; mutagenic call (Test System: CHINESE HAMSTER OVARY, Strain/Indicator: CHO-K1-BH4 (HGPRT)/6-THIOGUANINE, Metabolic Activation: RAT LIVER S-9, AROCLOR 1254): inactive; negative
CCCCNCCCNCCCNC(=O)c1csc(-c2csc(CCNC(=O)C(NC(=O)C(C)C(O)C(C)NC(=O)C(NC(=O)c3nc(C(CC(N)=O)NCC(N)C(N)=O)nc(N)c3C)C(OC3OC(CO)C(O)C(O)C3OC3OC(CO)C(O)C(OC(N)=O)C3O)c3cnc[nH]3)C(C)O)n2)n1 (configuration not stated) |  |  |  |  |  |  |  |  |  |  |  |  |  | mutagenic call (Test System: AMES SALMONELLA TYPHIMURIUM, Strain/Indicator: TA102, Metabolic Activation: NONE, Method: PREINCUBATION): active; positive
c1cnc2ccc3c(c2c1)CC[C@@H]1O[C@H]31 |  |  |  |  |  |  | inactive; negative |  |  |  |  |  |  | 
